According to the supplement of paper PMC10307832:

Assays:
Assay in all cases: relative viability (nuclei count vs DMSO), 5 days (fraction); higher = more cells survive
NCI-H1944 = tested on: NCI-H1944
Outline: (§1)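 Lung cancer cell lines were pin-tool dosed in 1536-well plates on the day after seeding, with either a lone drug or a fixed anchor-drug dose plus five library-drug doses (not always all listed) in √10 steps. Nuclei were counted on 4× images after 5 days. Relative viability is the ratio of treated-well to vehicle-well nuclei counts, with each value a median of duplicate plates.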

NCI-H650 = tested on: NCI-H650
Outline: as §1

NCI-H2023 = tested on: NCI-H2023
Outline: as §1

NCI-H1793 = tested on: NCI-H1793
Outline: as §1

H3255 = tested on: H3255
Outline: as §1

EMC-BAC-2 = tested on: EMC-BAC-2
Outline: as §1

HCC-44 = tested on: HCC-44
Outline: as §1

NCI-H2405 = tested on: NCI-H2405
Outline: as §1

LU99A = tested on: LU99A
Outline: as §1

SK-MES-1 = tested on: SK-MES-1
Outline: as §1

NCI-H1651 = tested on: NCI-H1651
Outline: as §1

NCI-H2085 = tested on: NCI-H2085
Outline: as §1

HCC-827 = tested on: HCC-827
Outline: as §1

EPLC-272H = tested on: EPLC-272H
Outline: as §1

NCI-H1395 = tested on: NCI-H1395
Outline: as §1

NCI-H520 = tested on: NCI-H520
Outline: as §1

NCI-H838 = tested on: NCI-H838
Outline: as §1

LCLC-103H = tested on: LCLC-103H
Outline: as §1

COR-L23 = tested on: COR-L23
Outline: as §1

ChaGo-K-1 = tested on: ChaGo-K-1
Outline: as §1

NCI-H2087 = tested on: NCI-H2087
Outline: as §1

Work on `CCN(CC)CCCCNc1ncc2cc(-c3cc(OC)cc(OC)c3)c(NC(=O)NC(C)(C)C)nc2n1` + Nc1ncn([C@H]2C[C@H](O)[C@@H](CO)O2)c(=O)n1 [Decitabine] (partner 2 µM) yielded a relative viability (NCI-H1944; first compound 0.01 µM) of 0.489, a relative viability (NCI-H1944; first compound 0.03162 µM) of 0.435 and a relative viability (NCI-H1944; first compound 0.1 µM) of 0.427. The relative viability (NCI-H1944; first compound 0.3162 µM) was 0.489, the relative viability (NCI-H1944; first compound 1 µM) was 0.477 and the relative viability (NCI-H650; first compound 0.01 µM) was 0.14. For the same compound, the relative viability (NCI-H650; first compound 0.03162 µM) was 0.272, the relative viability (NCI-H650; first compound 0.1 µM) was 0.33 and the relative viability (NCI-H650; first compound 0.3162 µM) was 0.332. For the same compound, the relative viability (NCI-H650; first compound 1 µM) was 0.326, the relative viability (NCI-H2023; first compound 0.01 µM) was 0.221 and the relative viability (NCI-H2023; first compound 0.03162 µM) was 0.268. For the same compound, the relative viability (NCI-H2023; first compound 0.1 µM) was 0.232, the relative viability (NCI-H2023; first compound 0.3162 µM) was 0.236 and the relative viability (NCI-H2023; first compound 1 µM) was 0.206. The relative viability (NCI-H1793; first compound 0.01 µM) was 0.496, the relative viability (NCI-H1793; first compound 0.03162 µM) was 0.464 and the relative viability (NCI-H1793; first compound 0.1 µM) was 0.56. It also gave a relative viability (NCI-H1793; first compound 0.3162 µM) of 0.472, a relative viability (NCI-H1793; first compound 1 µM) of 0.352 and a relative viability (H3255; first compound 0.01 µM) of 0.453. The relative viability (H3255; first compound 0.1 µM) was 0.65, the relative viability (H3255; first compound 0.3162 µM) was 0.712 and the relative viability (H3255; first compound 1 µM) was 0.448. For the same compound, the relative viability (EMC-BAC-2; first compound 0.03162 µM) was 1, the relative viability (EMC-BAC-2; first compound 0.1 µM) was 0.938 and the relative viability (EMC-BAC-2; first compound 0.3162 µM) was 0.948. For the same compound, the relative viability (EMC-BAC-2; first compound 1 µM) was 0.876, the relative viability (HCC-44; first compound 0.01 µM) was 0.944 and the relative viability (HCC-44; first compound 0.03162 µM) was 0.915. It also gave a relative viability (HCC-44; first compound 0.1 µM) of 1.02, a relative viability (HCC-44; first compound 0.3162 µM) of 0.949 and a relative viability (HCC-44; first compound 1 µM) of 0.979. It also gave a relative viability (NCI-H2405; first compound 0.01 µM) of 0.778, a relative viability (NCI-H2405; first compound 0.03162 µM) of 0.728 and a relative viability (NCI-H2405; first compound 0.1 µM) of 0.767. The relative viability (NCI-H2405; first compound 0.3162 µM) was 0.765, the relative viability (NCI-H2405; first compound 1 µM) was 0.702 and the relative viability (LU99A; first compound 0.01 µM) was 1.01. For the same compound, the relative viability (LU99A; first compound 0.03162 µM) was 0.82, the relative viability (LU99A; first compound 0.1 µM) was 0.861 and the relative viability (LU99A; first compound 0.3162 µM) was 0.944. It also gave a relative viability (LU99A; first compound 1 µM) of 0.79, a relative viability (SK-MES-1; first compound 0.01 µM) of 0.435 and a relative viability (SK-MES-1; first compound 0.03162 µM) of 0.425. For the same compound, the relative viability (SK-MES-1; first compound 0.1 µM) was 0.366, the relative viability (SK-MES-1; first compound 0.3162 µM) was 0.318 and the relative viability (SK-MES-1; first compound 1 µM) was 0.356. It also gave a relative viability (NCI-H1651; first compound 0.01 µM) of 0.625, a relative viability (NCI-H1651; first compound 0.03162 µM) of 0.68 and a relative viability (NCI-H1651; first compound 0.1 µM) of 0.63. The relative viability (NCI-H1651; first compound 0.3162 µM) was 0.75, the relative viability (NCI-H1651; first compound 1 µM) was 0.589 and the relative viability (NCI-H2085; first compound 0.01 µM) was 0.559. It also gave a relative viability (NCI-H2085; first compound 0.03162 µM) of 0.603, a relative viability (NCI-H2085; first compound 0.1 µM) of 0.564 and a relative viability (NCI-H2085; first compound 0.3162 µM) of 0.533. The relative viability (NCI-H2085; first compound 1 µM) was 0.549, the relative viability (HCC-827; first compound 0.01 µM) was 0.311 and the relative viability (HCC-827; first compound 0.03162 µM) was 0.369. The relative viability (HCC-827; first compound 0.1 µM) was 0.346, the relative viability (HCC-827; first compound 0.3162 µM) was 0.376 and the relative viability (HCC-827; first compound 1 µM) was 0.284. For the same compound, the relative viability (EPLC-272H; first compound 0.01 µM) was 0.384, the relative viability (EPLC-272H; first compound 0.1 µM) was 0.359 and the relative viability (EPLC-272H; first compound 0.3162 µM) was 0.378. The relative viability (EPLC-272H; first compound 1 µM) was 0.331, the relative viability (NCI-H1395; first compound 0.01 µM) was 0.8 and the relative viability (NCI-H1395; first compound 0.03162 µM) was 0.685. It also gave a relative viability (NCI-H1395; first compound 0.1 µM) of 0.743, a relative viability (NCI-H1395; first compound 0.3162 µM) of 0.735 and a relative viability (NCI-H1395; first compound 1 µM) of 0.598. The relative viability (NCI-H520; first compound 0.01 µM) was 0.51, the relative viability (NCI-H520; first compound 0.03162 µM) was 0.466 and the relative viability (NCI-H520; first compound 0.1 µM) was 0.501. The relative viability (NCI-H520; first compound 0.3162 µM) was 0.313, the relative viability (NCI-H520; first compound 1 µM) was 0.202 and the relative viability (NCI-H838; first compound 0.01 µM) was 0.481. For the same compound, the relative viability (NCI-H838; first compound 0.03162 µM) was 0.484, the relative viability (NCI-H838; first compound 0.1 µM) was 0.428 and the relative viability (NCI-H838; first compound 0.3162 µM) was 0.422. For the same compound, the relative viability (NCI-H838; first compound 1 µM) was 0.418, the relative viability (LCLC-103H; first compound 0.01 µM) was 0.775 and the relative viability (LCLC-103H; first compound 0.03162 µM) was 0.782. It also gave a relative viability (LCLC-103H; first compound 0.1 µM) of 0.758, a relative viability (LCLC-103H; first compound 0.3162 µM) of 0.809 and a relative viability (LCLC-103H; first compound 1 µM) of 0.602. For the same compound, the relative viability (COR-L23; first compound 0.01 µM) was 0.4, the relative viability (COR-L23; first compound 0.03162 µM) was 0.445 and the relative viability (COR-L23; first compound 0.1 µM) was 0.461. The relative viability (COR-L23; first compound 0.3162 µM) was 0.442, the relative viability (COR-L23; first compound 1 µM) was 0.43 and the relative viability (ChaGo-K-1; first compound 0.01 µM) was 0.563. For the same compound, the relative viability (ChaGo-K-1; first compound 0.03162 µM) was 0.516, the relative viability (ChaGo-K-1; first compound 0.1 µM) was 0.54 and the relative viability (ChaGo-K-1; first compound 0.3162 µM) was 0.539. It also gave a relative viability (ChaGo-K-1; first compound 1 µM) of 0.51, a relative viability (NCI-H2087; first compound 0.01 µM) of 0.314 and a relative viability (NCI-H2087; first compound 0.03162 µM) of 0.29. For the same compound, the relative viability (NCI-H2087; first compound 0.1 µM) was 0.302, the relative viability (NCI-H2087; first compound 0.3162 µM) was 0.284 and the relative viability (NCI-H2087; first compound 1 µM) was 0.317.
